Counter-ions that a name gives are not always drawn.
Compared with CNC(=O)COC(=O)NCCC1CCN(CCc2ccccc2Cl)CC1 (as salt: HCl) [Compound 57, 2-(methylamino)-2-oxoethyl 2-{1-[2-(2-chlorophenyl)ethyl]piperidin-4-yl}ethylcarbamate], CNC(=O)COC(=O)NCCC1CCN(CCc2c(F)cccc2Cl)CC1 [Compound 60, 2-(methylamino)-2-oxoethyl 2-{1-[2-(2-chloro-6-fluorophenyl)ethyl]piperidin-4-yl}ethylcarbamate] is lower in melting point: 121 to 123 °C for the first, 88 to 90 °C for the second.

CNC(=O)COC(=O)NCCC1CCN(CCCc2ccc(OC)cc2)CC1 (as salt: HCl) [Compound 64, 2-(methylamino)-2-oxoethyl 2-(1-{3-[4-(methyloxy)phenyl]propyl}piperidin-4-yl)ethylcarbamate] and CCOc1ccc(CCN2CCC(CCNC(=O)OCC(=O)NC)CC2)cc1 [Compound 59, 2-(methylamino)-2-oxoethyl 2-(1-{2-[4-(ethyloxy)phenyl]ethyl}piperidin-4-yl)ethylcarbamate] fall in the same range of melting point: 118 to 120 °C for the first, 118 to 120 °C for the second.

Compared with CNC(=O)COC(=O)NCCC1CCN(C(C)c2cccc(OC(F)(F)F)c2)CC1 (stereo not drawn) (as salt: HCl) [Compound 110, 2-(methylamino)-2-oxoethyl 2-(1-{1-[3-(trifluoromethoxy)phenyl]ethyl}piperidin-4-yl)ethylcarbamate], CNC(=O)COC(=O)NCCC1CCN(Cc2ccc(OC(F)(F)F)cc2)CC1 [Compound 16, 2-(methylamino)-2-oxoethyl 2-{1-[4-(trifluoromethoxy)benzyl]piperidin-4-yl}ethylcarbamate] is lower in melting point: 169 to 171 °C for the first, 109 to 111 °C for the second.

First: CNC(=O)COC(=O)NCCC1CCN(Cc2ccc(Br)cc2)CC1 [Compound 12, 2-(methylamino)-2-oxoethyl 2-{1-[(4-bromophenyl)methyl]piperidin-4-yl}ethylcarbamate]
Second: CNC(=O)COC(=O)NCCC1CCN(Cc2ccc(C(F)(F)F)cc2)CC1 [Compound 14, 2-(methylamino)-2-oxoethyl 2-(1-{[4-(trifluoromethyl)phenyl]methyl}piperidin-4-yl)ethylcarbamate]
The melting point of the first is lower: 107 to 111 °C for the first, 116 to 120 °C for the second.

Compared with CNC(=O)COC(=O)NCCC1CCN(Cc2cccc(C(F)(F)F)c2)CC1 [Compound 13, 2-(methylamino)-2-oxoethyl 2-(1-{[3-(trifluoromethyl)phenyl]methyl}piperidin-4-yl)ethylcarbamate], CNC(=O)COC(=O)NCCC1CCN(Cc2cccc(OC(C)(C)C)c2)CC1 [Compound 122, 2-(methylamino)-2-oxoethyl 2-[1-(3-tert-butoxybenzyl)piperidin-4-yl]ethylcarbamate] is lower in melting point: 90 to 92 °C for the first, 66 to 70 °C for the second.

Compared with CNC(=O)COC(=O)NCCC1CCN(Cc2cccc(Cl)c2Cl)CC1 [Compound 17, 2-(methylamino)-2-oxoethyl 2-{1-[(2,3-dichlorophenyl)methyl]piperidin-4-yl}ethylcarbamate], CNC(=O)COC(=O)NCCC1CCN(Cc2cccc(Cl)c2F)CC1 [Compound 23, 2-(methylamino)-2-oxoethyl 2-[1-(3-chloro-2-fluorobenzyl)piperidin-4-yl]ethylcarbamate] is lower in melting point: 114 to 116 °C for the first, 104 to 106 °C for the second.

First: CNC(=O)COC(=O)NCCC1CCN(Cc2ccc(Cl)cc2Cl)CC1 [Compound 18, 2-(methylamino)-2-oxoethyl 2-[1-(2,4-dichlorobenzyl)piperidin-4-yl]ethylcarbamate]
Second: CNC(=O)COC(=O)NCCC1CCN(Cc2cc(Cl)ccc2Cl)CC1 [Compound 19, 2-(methylamino)-2-oxoethyl 2-[1-(2,5-dichlorobenzyl)piperidin-4-yl]ethylcarbamate]
The melting point of the first is lower: 117 to 119 °C for the first, 125 to 127 °C for the second.

Compared with CNC(=O)COC(=O)NCCC1CCN(Cc2ccc(Cl)c(Cl)c2)CC1 [Compound 20, 2-(methylamino)-2-oxoethyl 2-{1-[(3,4-dichlorophenyl)methyl]piperidin-4-yl}ethylcarbamate], CNC(=O)COC(=O)NCCC1CCN(Cc2ccc(F)c(Cl)c2)CC1 [Compound 101, 2-(methylamino)-2-oxoethyl 2-[1-(3-chloro-4-fluorobenzyl)piperidin-4-yl]ethylcarbamate] is higher in melting point: 101 to 105 °C for the first, 112 to 114 °C for the second.

First: CNC(=O)COC(=O)NCCC1CCN(Cc2cc(Cl)cc(Cl)c2)CC1 [Compound 21, 2-(methylamino)-2-oxoethyl 2-[1-(3,5-dichlorobenzyl)piperidin-4-yl]ethylcarbamate]
Second: CNC(=O)COC(=O)NCCC1CCN(Cc2cc(C)cc(Cl)c2)CC1 [Compound 24, 2-(methylamino)-2-oxoethyl 2-[1-(3-chloro-5-methylbenzyl)piperidin-4-yl]ethylcarbamate]
The melting point of the first is higher: 124 to 126 °C for the first, 79 to 81 °C for the second.

First: CNC(=O)COC(=O)NCCC1CCN(Cc2cc(F)ccc2Cl)CC1 [Compound 22, 2-(methylamino)-2-oxoethyl 2-[1-(2-chloro-5-fluorobenzyl)piperidin-4-yl]ethylcarbamate]
Second: CNC(=O)COC(=O)NCCC1CCN(Cc2ccc(F)cc2Cl)CC1 [Compound 100, 2-(methylamino)-2-oxoethyl 2-[1-(2-chloro-4-fluorobenzyl)piperidin-4-yl]ethylcarbamate]
The melting point of the first is lower: 102 to 104 °C for the first, 108 to 110 °C for the second.

Compared with CNC(=O)COC(=O)NCCC1CCN(Cc2ccc(-c3ccc(F)cc3)cc2Cl)CC1 [Compound 27, 2-(methylamino)-2-oxoethyl 2-{1-[(3-chloro-4′-fluorobiphenyl-4-yl)methyl]piperidin-4-yl}ethylcarbamate], CNC(=O)COC(=O)NCCC1CCN(Cc2cccc(Oc3ccc(F)cc3)c2)CC1 [Compound 103, 2-(methylamino)-2-oxoethyl 2-{1-[3-(4-fluorophenoxy)benzyl]piperidin-4-yl}ethylcarbamate] is lower in melting point: 98 to 102 °C for the first, 79 to 81 °C for the second.

First: CNC(=O)COC(=O)NCCC1CCN(Cc2ccc(Oc3ccc(Cl)c(F)c3)cc2)CC1 [Compound 28, 2-(methylamino)-2-oxoethyl 2-{1-[4-(4-chloro-3-fluorophenoxy)benzyl]piperidin-4-yl}ethylcarbamate]
Second: CNC(=O)COC(=O)NCCC1CCN(Cc2ccc3ccccc3c2)CC1 [Compound 30, 2-(methylamino)-2-oxoethyl 2-[1-(naphthalen-2-ylmethyl)piperidin-4-yl]ethylcarbamate]
The melting point of the first is higher: 109 to 111 °C for the first, 87 to 93 °C for the second.

First: CNC(=O)COC(=O)NCCC1CCN(Cc2cccc3ccccc23)CC1 [Compound 29, 2-(methylamino)-2-oxoethyl 2-[1-(naphthalen-1-ylmethyl)piperidin-4-yl]ethylcarbamate]
Second: CNC(=O)COC(=O)NCCC1CCN(Cc2ccccn2)CC1 [Compound 31, 2-(methylamino)-2-oxoethyl 2-[1-(pyridin-2-ylmethyl)piperidin-4-yl]ethylcarbamate]
The melting point of the first is lower: 86 to 88 °C for the first, 104 to 106 °C for the second.

First: CNC(=O)COC(=O)NCC1CCN(CCc2ccc(F)cc2OC)CC1 [Compound 52]
Second: CNC(=O)COC(=O)NCCC1CCN(CCc2ccc(F)cc2)CC1 [Compound 58, 2-(methylamino)-2-oxoethyl 2-{1-[2-(4-fluorophenyl)ethyl]piperidin-4-yl}ethylcarbamate]
The melting point of the first is higher: 126 to 128 °C for the first, 122 to 124 °C for the second.

Compared with CNC(=O)COC(=O)NC1CCN(CCOc2ccc(Cl)cc2Cl)CC1 [Compound 68], CNC(=O)COC(=O)NCCC1CCN(CCOc2ccc(Cl)cc2)CC1 [Compound 84, 2-(methylamino)-2-oxoethyl 2-(1-{2-[(4-chlorophenyl)oxy]ethyl}piperidin-4-yl)ethylcarbamate] is lower in melting point: 115 to 119 °C for the first, 109 to 113 °C for the second.

First: CNC(=O)COC(=O)NCCC1CCN(CCOc2ccc(F)cc2)CC1 [Compound 83, 2-(methylamino)-2-oxoethyl 2-(1-{2-[(4-fluorophenyl)oxy]ethyl}piperidin-4-yl)ethylcarbamate]
Second: CNC(=O)COC(=O)NCCC1CCN(Cc2cc(F)cc(C#N)c2)CC1 [Compound 102, 2-(methylamino)-2-oxoethyl 2-[1-(3-cyano-5-fluorobenzyl)piperidin-4-yl]ethylcarbamate]
The melting point of the first is lower: 125 to 129 °C for the first, 132 to 134 °C for the second.

First: CNC(=O)COC(=O)NCCC1CCN(Cc2cc(-c3ccc(Cl)cc3)no2)CC1 [Compound 104, 2-(methylamino)-2-oxoethyl 2-(1-{[3-(4-chlorophenyl)isoxazol-5-yl]methyl}piperidin-4-yl)ethylcarbamate]
Second: CNC(=O)COC(=O)NCCC1CCN(CCc2cc(-c3ccc(Cl)cc3)no2)CC1 [Compound 120, 2-(methylamino)-2-oxoethyl 2-(1-{2-[3-(4-chlorophenyl)isoxazol-5-yl]ethyl}piperidin-4-yl)ethylcarbamate]
The melting point of the first is higher: 169 to 171 °C for the first, 135 to 137 °C for the second.

Compared with CNC(=O)COC(=O)NCCC1CCN(Cc2ncc(-c3ccc(Cl)cc3)o2)CC1 [Compound 105, 2-(methylamino)-2-oxoethyl 2-(1-{[5-(4-chlorophenyl)-1,3-oxazol-2-yl]methyl}piperidin-4-yl)ethylcarbamate], CNC(=O)COC(=O)NCCC1CCN(Cc2nc(-c3ccc(C(F)(F)F)cc3)cs2)CC1 [Compound 106, 2-(methylamino)-2-oxoethyl 2-[1-({4-[4-(trifluoromethyl)phenyl]-1,3-thiazol-2-yl}methyl)piperidin-4-yl]ethylcarbamate] is higher in melting point: 124 to 126 °C for the first, 161 to 163 °C for the second.

— US7781590B2, “Piperidinylalkylcarbamate derivatives, methods for their preparation and the therapeutic use thereof as fatty acid amido hydrolase enzyme inhibitors” (Sanofi-Aventis, priority 2004, dated 2010)
